Assays:
[1] = target: Steroidogenic factor 1 (Homo sapiens) (UniProt Q13285); test: Selectivity interaction (Reporter gene assay) EUB0001170a NR5A1; parameters: recommended concentration 1 uM
[2] = target: T1, Alpha trans-inducing protein (Human alphaherpesvirus 1) (UniProt A0A5J6DW59); test: Selectivity interaction (Reporter gene assay) EUB0001170a UL48; parameters: recommended concentration 1 uM
[3] = target: Nuclear receptor subfamily 2 group E member 1 (Homo sapiens) (UniProt Q9Y466); test: Selectivity interaction (Reporter gene assay) EUB0001170a NR2E1; parameters: recommended concentration 1 uM
[4] = target: T2, Nuclear receptor subfamily 2 group C member 1 (Homo sapiens) (UniProt P13056); test: Selectivity interaction (Reporter gene assay) EUB0001170a NR2C1; parameters: recommended concentration 1 uM
T2 sequence (whole entry): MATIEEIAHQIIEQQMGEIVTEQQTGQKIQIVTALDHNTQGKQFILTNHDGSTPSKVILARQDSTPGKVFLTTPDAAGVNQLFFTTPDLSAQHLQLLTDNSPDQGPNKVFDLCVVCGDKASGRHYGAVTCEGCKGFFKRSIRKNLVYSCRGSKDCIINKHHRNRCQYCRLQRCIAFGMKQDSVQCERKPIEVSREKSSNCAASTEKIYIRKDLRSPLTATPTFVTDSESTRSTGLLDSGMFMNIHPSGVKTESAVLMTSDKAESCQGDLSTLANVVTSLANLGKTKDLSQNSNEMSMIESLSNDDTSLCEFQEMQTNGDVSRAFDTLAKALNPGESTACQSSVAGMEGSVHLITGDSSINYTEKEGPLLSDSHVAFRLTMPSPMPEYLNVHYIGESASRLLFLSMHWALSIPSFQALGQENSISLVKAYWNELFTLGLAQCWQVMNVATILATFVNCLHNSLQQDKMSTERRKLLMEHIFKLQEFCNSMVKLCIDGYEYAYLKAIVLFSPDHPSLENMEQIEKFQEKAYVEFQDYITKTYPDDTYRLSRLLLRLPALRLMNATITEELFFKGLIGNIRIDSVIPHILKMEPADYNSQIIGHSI

[5] = target: T3, Hepatocyte nuclear factor 4-alpha (Homo sapiens) (UniProt P41235); test: Selectivity interaction (Reporter gene assay) EUB0001170a HNF4A; parameters: recommended concentration 1 uM
T3 sequence (whole entry): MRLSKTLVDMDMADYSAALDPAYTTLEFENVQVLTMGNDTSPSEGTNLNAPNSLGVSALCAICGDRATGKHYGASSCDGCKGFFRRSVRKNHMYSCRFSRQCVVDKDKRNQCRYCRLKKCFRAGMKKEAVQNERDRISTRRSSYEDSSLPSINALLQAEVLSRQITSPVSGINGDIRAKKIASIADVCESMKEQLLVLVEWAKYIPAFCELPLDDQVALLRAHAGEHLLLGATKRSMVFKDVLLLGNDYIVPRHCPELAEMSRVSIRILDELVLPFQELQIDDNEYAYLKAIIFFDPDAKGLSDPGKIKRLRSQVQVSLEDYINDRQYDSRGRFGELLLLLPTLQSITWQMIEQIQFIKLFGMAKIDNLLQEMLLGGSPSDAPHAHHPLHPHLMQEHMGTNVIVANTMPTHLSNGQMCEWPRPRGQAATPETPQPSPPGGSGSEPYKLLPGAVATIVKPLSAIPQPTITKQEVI

[6] = target: Nuclear receptor subfamily 4immunitygroup A member 1 (Homo sapiens) (UniProt P22736); test: Selectivity interaction (Reporter gene assay) EUB0001170a NR4A1; parameters: recommended concentration 1 uM
[7] = target: T4, Retinoic acid receptor RXR-alpha (Homo sapiens) (UniProt P19793); test: Selectivity interaction (Reporter gene assay) EUB0001170a RXRA; parameters: recommended concentration 1 uM; conditions: reference bexarotene 1 uM, Selectivity number of off-targets 0.0, Selectivity number of targets 1.0, Source Knowledge inhouse
T4 sequence (whole entry): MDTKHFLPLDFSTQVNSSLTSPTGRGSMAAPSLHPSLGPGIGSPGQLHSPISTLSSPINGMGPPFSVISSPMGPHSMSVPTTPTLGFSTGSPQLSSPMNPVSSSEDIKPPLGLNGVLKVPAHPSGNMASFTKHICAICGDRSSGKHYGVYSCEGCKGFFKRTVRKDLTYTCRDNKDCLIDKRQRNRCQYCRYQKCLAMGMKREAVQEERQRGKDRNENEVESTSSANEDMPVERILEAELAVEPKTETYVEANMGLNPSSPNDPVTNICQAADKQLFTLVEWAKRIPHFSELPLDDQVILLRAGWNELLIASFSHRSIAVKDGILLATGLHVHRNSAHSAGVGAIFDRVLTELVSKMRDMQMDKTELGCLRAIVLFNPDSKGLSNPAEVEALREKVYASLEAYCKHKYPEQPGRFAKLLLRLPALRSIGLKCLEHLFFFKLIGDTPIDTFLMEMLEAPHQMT

[8] = target: T1, Alpha trans-inducing protein (Human alphaherpesvirus 1); test: Selectivity interaction (Reporter gene assay) EUB0001172a UL48; parameters: recommended concentration 1 uM
[9] = target: Nuclear receptor subfamily 4immunitygroup A member 1 (Homo sapiens) (UniProt P22736); test: Selectivity interaction (Reporter gene assay) EUB0001483aCl NR4A1; parameters: recommended concentration 10 uM
[10] = target: T1, Alpha trans-inducing protein (Human alphaherpesvirus 1); test: Selectivity interaction (Reporter gene assay) EUB0001483aCl UL48; parameters: recommended concentration 10 uM
[11] = target: T3, Hepatocyte nuclear factor 4-alpha (Homo sapiens); test: Selectivity interaction (Reporter gene assay) EUB0001483aCl HNF4A; parameters: recommended concentration 10 uM
[12] = target: T2, Nuclear receptor subfamily 2 group C member 1 (Homo sapiens); test: Selectivity interaction (Reporter gene assay) EUB0001483aCl NR2C1; parameters: recommended concentration 10 uM
[13] = target: Steroidogenic factor 1 (Homo sapiens) (UniProt Q13285); test: Selectivity interaction (Reporter gene assay) EUB0001483aCl NR5A1; parameters: recommended concentration 10 uM
[14] = target: Nuclear receptor subfamily 2 group E member 1 (Homo sapiens) (UniProt Q9Y466); test: Selectivity interaction (Reporter gene assay) EUB0001483aCl NR2E1; parameters: recommended concentration 10 uM
[15] = target: T4, Retinoic acid receptor RXR-alpha (Homo sapiens); test: Selectivity interaction (Reporter gene assay) EUB0001483aCl RXRA; parameters: recommended concentration 10 uM; conditions: reference bexarotene 1 uM, Selectivity number of off-targets 0.0, Selectivity number of targets 1.0, Source Knowledge inhouse
[16] = target: Nuclear receptor subfamily 4immunitygroup A member 1 (Homo sapiens) (UniProt P22736); test: Selectivity interaction (Reporter gene assay) EUB0001173a NR4A1; parameters: recommended concentration 1 uM
[17] = target: T4, Retinoic acid receptor RXR-alpha (Homo sapiens); test: Selectivity interaction (Reporter gene assay) EUB0001173a RXRA; parameters: recommended concentration 1 uM
[18] = target: Steroidogenic factor 1 (Homo sapiens) (UniProt Q13285); test: Selectivity interaction (Reporter gene assay) EUB0001173a NR5A1; parameters: recommended concentration 1 uM
[19] = target: T3, Hepatocyte nuclear factor 4-alpha (Homo sapiens); test: Selectivity interaction (Reporter gene assay) EUB0001173a HNF4A; parameters: recommended concentration 1 uM
[20] = target: T5, Oxysterols receptor LXR-beta (Homo sapiens) (UniProt P55055); test: Selectivity interaction (Reporter gene assay) EUB0001173a NR1H2; parameters: recommended concentration 1 uM; conditions: screened at recom. conc., Selectivity number of off-targets 1.0, Selectivity number of targets 19.0, Source Knowledge inhouse
T5 sequence (whole entry): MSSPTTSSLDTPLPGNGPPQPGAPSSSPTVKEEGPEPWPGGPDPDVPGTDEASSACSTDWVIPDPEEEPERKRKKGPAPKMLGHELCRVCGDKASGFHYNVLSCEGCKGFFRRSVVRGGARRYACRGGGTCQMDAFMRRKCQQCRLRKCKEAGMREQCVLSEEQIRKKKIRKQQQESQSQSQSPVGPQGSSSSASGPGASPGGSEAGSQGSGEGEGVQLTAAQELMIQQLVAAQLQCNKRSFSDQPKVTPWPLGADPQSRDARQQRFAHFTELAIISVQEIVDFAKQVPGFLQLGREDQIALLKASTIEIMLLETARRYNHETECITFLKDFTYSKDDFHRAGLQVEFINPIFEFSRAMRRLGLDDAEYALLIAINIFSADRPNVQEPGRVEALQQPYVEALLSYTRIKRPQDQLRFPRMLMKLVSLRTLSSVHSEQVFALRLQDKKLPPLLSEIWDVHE

[21] = target: Nuclear receptor subfamily 2 group E member 1 (Homo sapiens) (UniProt Q9Y466); test: Selectivity interaction (Reporter gene assay) EUB0001173a NR2E1; parameters: recommended concentration 1 uM
[22] = target: T1, Alpha trans-inducing protein (Human alphaherpesvirus 1); test: Selectivity interaction (Reporter gene assay) EUB0001173a UL48; parameters: recommended concentration 1 uM
[23] = target: T2, Nuclear receptor subfamily 2 group C member 1 (Homo sapiens); test: Selectivity interaction (Reporter gene assay) EUB0001173a NR2C1; parameters: recommended concentration 1 uM
[24] = target: Steroidogenic factor 1 (Homo sapiens) (UniProt Q13285); test: Selectivity interaction (Reporter gene assay) EUB0001478a NR5A1; parameters: recommended concentration 1 uM
[25] = target: T1, Alpha trans-inducing protein (Human alphaherpesvirus 1); test: Selectivity interaction (Reporter gene assay) EUB0001478a UL48; parameters: recommended concentration 1 uM
[26] = target: T4, Retinoic acid receptor RXR-alpha (Homo sapiens); test: Selectivity interaction (Reporter gene assay) EUB0001478a RXRA; parameters: recommended concentration 1 uM
[27] = target: Nuclear receptor subfamily 2 group E member 1 (Homo sapiens) (UniProt Q9Y466); test: Selectivity interaction (Reporter gene assay) EUB0001478a NR2E1; parameters: recommended concentration 1 uM
[28] = target: T2, Nuclear receptor subfamily 2 group C member 1 (Homo sapiens); test: Selectivity interaction (Reporter gene assay) EUB0001478a NR2C1; parameters: recommended concentration 1 uM
[29] = target: Nuclear receptor subfamily 4immunitygroup A member 1 (Homo sapiens) (UniProt P22736); test: Selectivity interaction (Reporter gene assay) EUB0001478a NR4A1; parameters: recommended concentration 1 uM
[30] = target: T3, Hepatocyte nuclear factor 4-alpha (Homo sapiens); test: Selectivity interaction (Reporter gene assay) EUB0001478a HNF4A; parameters: recommended concentration 1 uM

Sequence of Steroidogenic factor 1 (Homo sapiens) (Q13285 whole entry): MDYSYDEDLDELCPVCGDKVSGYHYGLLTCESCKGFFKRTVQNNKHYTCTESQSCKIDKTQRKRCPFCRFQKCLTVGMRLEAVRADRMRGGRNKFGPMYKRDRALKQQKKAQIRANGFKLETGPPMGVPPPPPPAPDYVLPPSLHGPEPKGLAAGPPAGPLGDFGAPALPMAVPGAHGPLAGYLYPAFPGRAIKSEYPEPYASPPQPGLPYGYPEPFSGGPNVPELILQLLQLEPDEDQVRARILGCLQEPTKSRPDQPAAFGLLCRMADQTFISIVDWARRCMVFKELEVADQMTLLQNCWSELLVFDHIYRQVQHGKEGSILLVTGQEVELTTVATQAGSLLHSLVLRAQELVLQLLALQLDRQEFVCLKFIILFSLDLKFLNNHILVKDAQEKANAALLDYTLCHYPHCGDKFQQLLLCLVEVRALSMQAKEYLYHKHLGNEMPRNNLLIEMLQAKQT
Sequence of Nuclear receptor subfamily 4immunitygroup A member 1 (Homo sapiens) (P22736 whole entry): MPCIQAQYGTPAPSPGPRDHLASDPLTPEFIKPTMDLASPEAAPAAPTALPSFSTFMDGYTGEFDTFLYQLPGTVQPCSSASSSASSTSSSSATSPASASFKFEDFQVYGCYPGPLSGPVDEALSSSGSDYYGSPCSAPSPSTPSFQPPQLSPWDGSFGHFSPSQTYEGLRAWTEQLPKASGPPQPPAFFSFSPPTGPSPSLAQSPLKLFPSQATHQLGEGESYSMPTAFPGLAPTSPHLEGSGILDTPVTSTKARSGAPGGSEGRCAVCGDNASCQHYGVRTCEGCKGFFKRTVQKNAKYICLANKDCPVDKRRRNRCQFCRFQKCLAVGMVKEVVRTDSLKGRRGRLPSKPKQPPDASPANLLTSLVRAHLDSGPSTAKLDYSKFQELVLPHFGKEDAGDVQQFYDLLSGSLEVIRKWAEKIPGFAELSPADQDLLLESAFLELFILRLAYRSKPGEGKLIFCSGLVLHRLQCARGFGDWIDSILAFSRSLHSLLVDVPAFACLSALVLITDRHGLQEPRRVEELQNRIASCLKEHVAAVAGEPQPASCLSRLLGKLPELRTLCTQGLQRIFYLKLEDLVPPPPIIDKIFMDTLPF
Sequence of Nuclear receptor subfamily 2 group E member 1 (Homo sapiens) (Q9Y466 whole entry): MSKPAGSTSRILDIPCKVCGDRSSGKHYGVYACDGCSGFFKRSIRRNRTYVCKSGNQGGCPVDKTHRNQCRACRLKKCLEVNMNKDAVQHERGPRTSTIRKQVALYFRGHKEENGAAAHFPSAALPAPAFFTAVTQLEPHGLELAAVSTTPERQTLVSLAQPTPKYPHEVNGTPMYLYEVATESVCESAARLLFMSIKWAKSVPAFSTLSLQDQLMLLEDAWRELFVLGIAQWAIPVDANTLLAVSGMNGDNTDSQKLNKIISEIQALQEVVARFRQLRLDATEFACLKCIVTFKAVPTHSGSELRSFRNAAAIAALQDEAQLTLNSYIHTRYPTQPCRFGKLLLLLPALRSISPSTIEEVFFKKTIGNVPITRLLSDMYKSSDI
T1 sequence (A0A5J6DW59 as listed by the source): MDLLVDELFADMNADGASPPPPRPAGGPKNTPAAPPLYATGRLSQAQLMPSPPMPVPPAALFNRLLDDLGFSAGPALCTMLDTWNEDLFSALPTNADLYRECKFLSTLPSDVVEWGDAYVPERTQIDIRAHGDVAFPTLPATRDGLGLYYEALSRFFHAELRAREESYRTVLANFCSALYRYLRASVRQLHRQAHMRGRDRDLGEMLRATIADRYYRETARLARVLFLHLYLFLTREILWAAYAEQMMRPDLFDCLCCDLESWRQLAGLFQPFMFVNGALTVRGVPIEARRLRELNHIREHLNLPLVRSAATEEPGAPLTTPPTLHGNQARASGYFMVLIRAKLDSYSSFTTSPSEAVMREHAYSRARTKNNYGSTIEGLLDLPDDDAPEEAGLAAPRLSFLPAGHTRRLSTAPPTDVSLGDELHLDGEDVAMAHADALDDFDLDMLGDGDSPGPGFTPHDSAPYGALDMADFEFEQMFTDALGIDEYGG

Question: Which results are given for CC(C)C(=O)N1CCC(c2cn(C)c3ncc(NC(=O)c4cccc(C#N)c4)c(C(F)(F)F)c23)CC1?
Answer: Fold activation [1]: 1.12; P-value [2]: 0.00111; Remaining activity [3]: 0.839; Remaining activity [4]: 0.916; Fold activation [5]: 1.08; Fold activation [6]: 1.14; Relative activation [7]: 0.336%

Question: With CC(C)(C[C@H]1CN(S(=O)(=O)c2cccc(C(F)(F)F)c2)c2cc(-c3cc(F)cc(OC(F)F)c3)ccc2O1)C(=O)O as the compound, how does the P-value [8] read?
Answer: 4.9e-12

Question: How did the Fold activation [9] turn out when CN1CCN(c2ccc(/C=C(\C#N)c3ccccc3Br)cc2)CC1 was run?
Answer: 1.35

Question: What about the P-value [10] of the same compound?
Answer: 7.2e-05

Question: And the Fold activation [11]?
Answer: 1.03

Question: What about the Fold activation [12] of the same compound?
Answer: 1.32

Question: What about the Fold activation [13] of the same compound?
Answer: 1.5

Question: And the Fold activation [14]?
Answer: 1.32

Question: And the Relative activation [15]?
Answer: 1.47%

Question: How did the Fold activation [16] turn out when Cn1cc(C(=O)O)c2ccc(N3CCC(OCc4c(-c5c(Cl)cccc5Cl)noc4C4CC4)CC3)cc21 was run?
Answer: 1.01

Question: And the Relative activation [17]?
Answer: 0.539%

Question: What about the Fold activation [18] of the same compound?
Answer: 0.997

Question: What about the Fold activation [19] of the same compound?
Answer: 1.11

Question: What about the Fold activation [20] of the same compound?
Answer: 5.89

Question: And the Fold activation [21]?
Answer: 1.08

Question: And the P-value [22]?
Answer: 1.58e-05

Question: And the Fold activation [23]?
Answer: 1.23

Question: With C=C1/C(=C\C=C2/CCC[C@]3(C)[C@@H]([C@H](C)CCCC(C)(C)O)CC[C@@H]23)C[C@@H](O)C[C@@H]1O as the compound, how does the Remaining activity [24] read?
Answer: 0.937

Question: And the P-value [25]?
Answer: 6.76e-09

Question: What about the Relative activation [26] of the same compound?
Answer: 0.656%

Question: What about the Fold activation [27] of the same compound?
Answer: 1.03

Question: And the Fold activation [28]?
Answer: 1.06

Question: What about the Fold activation [29] of the same compound?
Answer: 1.22

Question: And the Remaining activity [30]?
Answer: 0.883

Source: ChEMBL document CHEMBL5715260, “Selectivity Literature for EUbOPEN Chemogenomic Library” (2024)
